Reference: ChEMBL document CHEMBL4431395, “Cellular Activity of New Small Molecule Protein Arginine Deiminase 3 (PAD3) Inhibitors” (ACS Med Chem Lett, 2016)

How the values were obtained:
[1] = target: T1, Protein-arginine deiminase type-1 (Homo sapiens, UniProt Q9ULC6); assay: Inhibition of recombinant human 6His-tagged PAD1 assessed as reduction in residual activity preincubated for 15 mins followed by addition of N-benzoylated arginine ethyl ester hydrochloride measured after 15 mins by colder assay
T1 sequence (Q9ULC6 whole entry): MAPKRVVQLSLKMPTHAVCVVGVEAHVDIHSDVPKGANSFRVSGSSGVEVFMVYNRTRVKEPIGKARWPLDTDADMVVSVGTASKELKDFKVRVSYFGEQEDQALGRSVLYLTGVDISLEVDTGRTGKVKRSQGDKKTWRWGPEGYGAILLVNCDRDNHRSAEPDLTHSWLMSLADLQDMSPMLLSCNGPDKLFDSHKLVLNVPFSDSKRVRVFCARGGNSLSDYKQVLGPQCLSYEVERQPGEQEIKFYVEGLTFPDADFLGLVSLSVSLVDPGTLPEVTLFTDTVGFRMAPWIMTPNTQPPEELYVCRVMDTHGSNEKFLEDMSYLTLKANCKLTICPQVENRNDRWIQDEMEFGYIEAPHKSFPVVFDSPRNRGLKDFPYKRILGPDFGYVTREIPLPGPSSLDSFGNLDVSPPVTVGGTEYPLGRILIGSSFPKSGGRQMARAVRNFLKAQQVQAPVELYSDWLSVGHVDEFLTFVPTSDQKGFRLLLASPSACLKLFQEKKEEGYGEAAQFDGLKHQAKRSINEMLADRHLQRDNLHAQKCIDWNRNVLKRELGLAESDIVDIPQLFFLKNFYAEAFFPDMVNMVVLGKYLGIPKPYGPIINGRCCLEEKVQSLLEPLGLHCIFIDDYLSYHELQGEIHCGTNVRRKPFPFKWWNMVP

[2] = target: Protein-arginine deiminase type-2 (Homo sapiens, UniProt Q9Y2J8); assay: Inhibition of recombinant human 6His-tagged PAD2 assessed as reduction in residual activity preincubated for 15 mins followed by addition of N-benzoylated arginine ethyl ester hydrochloride measured after 15 mins by colder assay
[3] = target: Protein-arginine deiminase type-4 (Homo sapiens, UniProt Q9UM07); assay: Inhibition of recombinant human GST-tagged PAD4 expressed in Escherichia coli BL21-DE3 pLysS assessed as reduction in reduction in residual activity preincubated for 15 mins followed by addition of N-benzoylated arginine ethyl ester hydrochloride measured after 15 mins by colder assay
Protein-arginine deiminase type-4, sequence (Q9UM07 whole entry): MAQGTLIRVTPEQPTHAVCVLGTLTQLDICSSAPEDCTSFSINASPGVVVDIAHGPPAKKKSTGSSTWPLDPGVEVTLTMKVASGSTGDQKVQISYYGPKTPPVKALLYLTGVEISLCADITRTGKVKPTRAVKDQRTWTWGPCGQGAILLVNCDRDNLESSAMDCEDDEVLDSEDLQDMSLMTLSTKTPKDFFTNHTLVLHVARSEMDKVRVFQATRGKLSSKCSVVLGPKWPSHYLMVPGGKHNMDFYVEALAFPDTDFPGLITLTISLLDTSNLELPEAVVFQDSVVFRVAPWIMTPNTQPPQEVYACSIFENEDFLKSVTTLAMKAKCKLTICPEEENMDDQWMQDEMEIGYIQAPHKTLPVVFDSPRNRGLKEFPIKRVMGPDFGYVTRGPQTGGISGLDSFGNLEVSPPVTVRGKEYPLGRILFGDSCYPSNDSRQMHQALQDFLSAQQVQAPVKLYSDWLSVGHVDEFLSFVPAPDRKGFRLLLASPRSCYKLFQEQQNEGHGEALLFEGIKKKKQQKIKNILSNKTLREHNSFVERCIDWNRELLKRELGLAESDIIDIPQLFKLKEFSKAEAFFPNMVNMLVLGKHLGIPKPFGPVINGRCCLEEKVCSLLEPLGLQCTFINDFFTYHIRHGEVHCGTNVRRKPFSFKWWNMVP

Protein-arginine deiminase type-2, sequence (Q9Y2J8 whole entry): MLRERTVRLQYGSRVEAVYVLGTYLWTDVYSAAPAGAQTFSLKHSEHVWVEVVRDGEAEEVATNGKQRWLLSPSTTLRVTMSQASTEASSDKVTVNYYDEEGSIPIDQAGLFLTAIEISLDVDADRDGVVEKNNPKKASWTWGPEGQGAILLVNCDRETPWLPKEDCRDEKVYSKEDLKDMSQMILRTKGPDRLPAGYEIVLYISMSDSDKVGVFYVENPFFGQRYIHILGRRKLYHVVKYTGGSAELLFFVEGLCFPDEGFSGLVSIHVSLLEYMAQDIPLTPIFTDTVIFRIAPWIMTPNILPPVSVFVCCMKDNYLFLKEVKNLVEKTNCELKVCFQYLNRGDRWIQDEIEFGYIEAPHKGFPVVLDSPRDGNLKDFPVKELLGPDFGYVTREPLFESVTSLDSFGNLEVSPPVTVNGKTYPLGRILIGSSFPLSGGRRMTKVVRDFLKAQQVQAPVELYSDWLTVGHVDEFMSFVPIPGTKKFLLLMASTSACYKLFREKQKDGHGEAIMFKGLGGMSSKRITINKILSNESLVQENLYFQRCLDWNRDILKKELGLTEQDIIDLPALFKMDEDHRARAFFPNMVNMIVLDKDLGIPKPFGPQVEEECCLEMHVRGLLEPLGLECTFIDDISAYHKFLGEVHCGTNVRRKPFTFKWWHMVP

Row | IC50 [1] | IC50 [2] | IC50 [3] | Structure (SMILES)
1 | 125 µM | – | – | N=C(CCl)NC/C=C/C(=O)NCc1cccc(-c2ccccc2)c1
2 | 408 µM | 153 µM | – | N=C(CCl)NCC#CC(=O)NCc1cccc(-c2ccccc2)c1
3 | 161 µM | – | – | N=C(CCl)NCCCc1nc(Cl)c(-c2cccc(-c3ccccc3)c2)[nH]1
4 | – | 140 µM | 129 µM | N=C(CCl)NCCNC(=O)NCc1cccc(-c2ccccc2)c1
5 | > 500 µM | 151 µM | – | N=C(CCl)NCCOC(=O)NCc1cccc(-c2ccccc2)c1
6 | 294 µM | 110 µM | – | N=C(CCl)NCCCc1cn(-c2cccc(-c3ccccc3)c2)nn1
